The source of these data is ChEMBL document CHEMBL3991601, “The target landscape of clinical kinase drugs” (Science, 2017).

Structures are written as SMILES. The source made the active and inactive calls. For most assays here, no stated cut-off is given here; in the data, actives have a measured Kd and inactives only a lower limit.

Test [1] deals with Calcium/calmodulin-dependent protein kinase type II subunit delta (Homo sapiens, UniProt Q13557).
Test [2] has as its target Serine/threonine-protein kinase MRCK alpha (Homo sapiens, UniProt Q5VT25).
In test [3] the target is DnaJ homolog subfamily A member 1 (Homo sapiens, UniProt P31689).
In test [4] the target is Serine/threonine-protein kinase PAK 2 (Homo sapiens, UniProt Q13177).
The target of test [5] is Serine/threonine-protein kinase N1 (Homo sapiens, UniProt Q16512).
Test [6] has as its target T1, Structural maintenance of chromosomes protein 1A (Homo sapiens, UniProt Q14683).
T1 sequence (Q14683 whole entry): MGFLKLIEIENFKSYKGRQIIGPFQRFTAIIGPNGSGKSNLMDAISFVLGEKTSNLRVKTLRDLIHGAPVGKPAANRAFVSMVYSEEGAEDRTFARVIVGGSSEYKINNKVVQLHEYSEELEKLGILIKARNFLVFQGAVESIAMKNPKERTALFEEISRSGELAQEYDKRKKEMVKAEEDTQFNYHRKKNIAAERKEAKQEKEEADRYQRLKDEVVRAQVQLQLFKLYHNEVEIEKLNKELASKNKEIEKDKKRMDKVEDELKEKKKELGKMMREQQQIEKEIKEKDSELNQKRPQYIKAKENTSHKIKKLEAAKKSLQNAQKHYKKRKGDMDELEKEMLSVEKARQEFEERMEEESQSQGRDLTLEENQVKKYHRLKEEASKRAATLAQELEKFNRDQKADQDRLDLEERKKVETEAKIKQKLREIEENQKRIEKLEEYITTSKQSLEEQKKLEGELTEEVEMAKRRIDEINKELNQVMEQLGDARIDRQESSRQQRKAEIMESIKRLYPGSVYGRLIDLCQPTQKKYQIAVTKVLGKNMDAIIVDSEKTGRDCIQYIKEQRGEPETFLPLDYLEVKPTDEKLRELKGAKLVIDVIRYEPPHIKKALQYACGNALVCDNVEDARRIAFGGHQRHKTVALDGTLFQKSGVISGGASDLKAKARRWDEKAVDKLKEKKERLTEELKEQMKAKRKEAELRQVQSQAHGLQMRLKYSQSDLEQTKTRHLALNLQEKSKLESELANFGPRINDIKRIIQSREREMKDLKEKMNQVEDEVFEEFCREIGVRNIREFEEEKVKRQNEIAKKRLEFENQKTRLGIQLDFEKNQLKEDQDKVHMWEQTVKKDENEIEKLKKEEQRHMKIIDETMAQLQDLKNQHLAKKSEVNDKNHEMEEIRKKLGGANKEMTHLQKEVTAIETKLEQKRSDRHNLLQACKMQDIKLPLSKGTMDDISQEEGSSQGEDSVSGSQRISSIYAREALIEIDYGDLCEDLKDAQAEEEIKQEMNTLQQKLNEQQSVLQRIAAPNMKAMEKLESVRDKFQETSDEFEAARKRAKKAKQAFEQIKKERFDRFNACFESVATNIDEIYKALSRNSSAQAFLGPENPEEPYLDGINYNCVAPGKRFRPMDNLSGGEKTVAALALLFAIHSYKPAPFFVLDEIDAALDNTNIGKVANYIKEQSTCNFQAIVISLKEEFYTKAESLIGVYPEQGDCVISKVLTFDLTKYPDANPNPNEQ

Test [7] has as its target Serine/threonine-protein kinase 10 (Homo sapiens, UniProt O94804).
For test [8], the target named is T2, TGF-beta receptor type-1 (Homo sapiens, UniProt P36897).
T2 sequence (P36897 whole entry): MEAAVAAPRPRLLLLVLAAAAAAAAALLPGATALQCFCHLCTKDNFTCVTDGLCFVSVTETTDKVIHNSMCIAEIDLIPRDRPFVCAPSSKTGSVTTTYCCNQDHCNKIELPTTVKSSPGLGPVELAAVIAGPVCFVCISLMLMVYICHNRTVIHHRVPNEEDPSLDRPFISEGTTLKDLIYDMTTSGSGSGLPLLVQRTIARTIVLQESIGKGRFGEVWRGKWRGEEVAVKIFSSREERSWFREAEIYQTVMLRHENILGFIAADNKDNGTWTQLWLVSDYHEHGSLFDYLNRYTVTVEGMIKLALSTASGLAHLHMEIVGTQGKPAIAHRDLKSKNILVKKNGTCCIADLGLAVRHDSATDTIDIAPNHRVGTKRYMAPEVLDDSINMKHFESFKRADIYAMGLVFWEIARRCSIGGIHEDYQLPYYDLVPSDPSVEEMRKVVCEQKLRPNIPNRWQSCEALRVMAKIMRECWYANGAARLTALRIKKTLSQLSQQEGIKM

Test [9] has as its target Wee1-like protein kinase (Homo sapiens, UniProt P30291).
Test [10] has as its target T3, General transcription and DNA repair factor IIH helicase subunit XPD (Homo sapiens, UniProt P18074).
T3 sequence (P18074 whole entry): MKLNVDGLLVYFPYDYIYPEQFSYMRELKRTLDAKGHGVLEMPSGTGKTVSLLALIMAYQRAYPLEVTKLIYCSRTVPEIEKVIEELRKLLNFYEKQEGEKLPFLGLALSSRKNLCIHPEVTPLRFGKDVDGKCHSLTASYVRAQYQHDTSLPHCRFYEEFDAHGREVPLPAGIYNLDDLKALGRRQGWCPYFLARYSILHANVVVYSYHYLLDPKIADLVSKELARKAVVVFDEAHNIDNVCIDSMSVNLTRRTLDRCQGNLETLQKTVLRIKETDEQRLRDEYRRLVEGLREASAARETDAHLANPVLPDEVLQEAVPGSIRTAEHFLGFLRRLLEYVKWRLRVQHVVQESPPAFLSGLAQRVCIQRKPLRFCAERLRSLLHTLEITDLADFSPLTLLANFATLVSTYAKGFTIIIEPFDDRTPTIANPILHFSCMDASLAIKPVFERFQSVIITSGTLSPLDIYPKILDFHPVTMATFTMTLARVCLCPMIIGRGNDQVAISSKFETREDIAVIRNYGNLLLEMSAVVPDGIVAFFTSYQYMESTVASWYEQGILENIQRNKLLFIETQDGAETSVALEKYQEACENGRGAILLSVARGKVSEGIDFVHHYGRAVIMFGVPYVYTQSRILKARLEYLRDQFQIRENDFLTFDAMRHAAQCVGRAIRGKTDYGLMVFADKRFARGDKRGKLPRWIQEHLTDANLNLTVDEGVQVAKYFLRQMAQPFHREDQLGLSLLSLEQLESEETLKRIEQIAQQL
The settings on record: read-out: Kd apparent; k-562, colo 205, sk-n-be(2) and mv-4-11.

Wee1-like protein kinase, sequence (P30291 whole entry): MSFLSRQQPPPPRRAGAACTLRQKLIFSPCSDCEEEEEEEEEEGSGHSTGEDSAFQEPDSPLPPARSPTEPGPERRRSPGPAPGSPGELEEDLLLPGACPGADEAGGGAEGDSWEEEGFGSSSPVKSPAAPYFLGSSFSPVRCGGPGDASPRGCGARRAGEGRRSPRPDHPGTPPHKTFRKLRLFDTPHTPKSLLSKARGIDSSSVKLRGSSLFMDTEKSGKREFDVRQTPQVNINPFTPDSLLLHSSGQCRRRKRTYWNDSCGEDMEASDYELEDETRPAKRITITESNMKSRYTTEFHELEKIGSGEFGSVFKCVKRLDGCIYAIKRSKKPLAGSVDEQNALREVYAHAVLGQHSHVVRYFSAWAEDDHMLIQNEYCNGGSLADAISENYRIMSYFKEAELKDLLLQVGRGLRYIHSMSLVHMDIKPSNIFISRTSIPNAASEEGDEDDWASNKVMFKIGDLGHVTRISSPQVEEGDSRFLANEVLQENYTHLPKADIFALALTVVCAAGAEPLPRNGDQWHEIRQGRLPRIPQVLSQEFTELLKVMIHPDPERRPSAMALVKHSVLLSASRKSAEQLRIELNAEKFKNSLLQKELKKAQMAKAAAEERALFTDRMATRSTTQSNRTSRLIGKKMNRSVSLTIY
Calcium/calmodulin-dependent protein kinase type II subunit delta, sequence (Q13557 whole entry): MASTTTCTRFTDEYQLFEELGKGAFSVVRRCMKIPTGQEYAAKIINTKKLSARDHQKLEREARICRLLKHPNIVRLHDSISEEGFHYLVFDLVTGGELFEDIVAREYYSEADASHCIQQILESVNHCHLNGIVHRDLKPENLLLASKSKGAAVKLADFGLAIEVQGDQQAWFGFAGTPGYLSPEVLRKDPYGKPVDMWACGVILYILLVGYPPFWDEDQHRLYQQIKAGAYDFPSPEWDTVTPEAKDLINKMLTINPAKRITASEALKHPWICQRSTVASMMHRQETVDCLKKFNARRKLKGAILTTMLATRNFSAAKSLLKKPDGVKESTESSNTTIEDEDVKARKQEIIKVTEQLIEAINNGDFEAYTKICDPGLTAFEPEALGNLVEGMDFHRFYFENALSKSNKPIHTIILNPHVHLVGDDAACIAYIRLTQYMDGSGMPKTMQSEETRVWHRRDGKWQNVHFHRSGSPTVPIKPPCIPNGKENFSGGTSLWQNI
Serine/threonine-protein kinase MRCK alpha, sequence (Q5VT25 whole entry): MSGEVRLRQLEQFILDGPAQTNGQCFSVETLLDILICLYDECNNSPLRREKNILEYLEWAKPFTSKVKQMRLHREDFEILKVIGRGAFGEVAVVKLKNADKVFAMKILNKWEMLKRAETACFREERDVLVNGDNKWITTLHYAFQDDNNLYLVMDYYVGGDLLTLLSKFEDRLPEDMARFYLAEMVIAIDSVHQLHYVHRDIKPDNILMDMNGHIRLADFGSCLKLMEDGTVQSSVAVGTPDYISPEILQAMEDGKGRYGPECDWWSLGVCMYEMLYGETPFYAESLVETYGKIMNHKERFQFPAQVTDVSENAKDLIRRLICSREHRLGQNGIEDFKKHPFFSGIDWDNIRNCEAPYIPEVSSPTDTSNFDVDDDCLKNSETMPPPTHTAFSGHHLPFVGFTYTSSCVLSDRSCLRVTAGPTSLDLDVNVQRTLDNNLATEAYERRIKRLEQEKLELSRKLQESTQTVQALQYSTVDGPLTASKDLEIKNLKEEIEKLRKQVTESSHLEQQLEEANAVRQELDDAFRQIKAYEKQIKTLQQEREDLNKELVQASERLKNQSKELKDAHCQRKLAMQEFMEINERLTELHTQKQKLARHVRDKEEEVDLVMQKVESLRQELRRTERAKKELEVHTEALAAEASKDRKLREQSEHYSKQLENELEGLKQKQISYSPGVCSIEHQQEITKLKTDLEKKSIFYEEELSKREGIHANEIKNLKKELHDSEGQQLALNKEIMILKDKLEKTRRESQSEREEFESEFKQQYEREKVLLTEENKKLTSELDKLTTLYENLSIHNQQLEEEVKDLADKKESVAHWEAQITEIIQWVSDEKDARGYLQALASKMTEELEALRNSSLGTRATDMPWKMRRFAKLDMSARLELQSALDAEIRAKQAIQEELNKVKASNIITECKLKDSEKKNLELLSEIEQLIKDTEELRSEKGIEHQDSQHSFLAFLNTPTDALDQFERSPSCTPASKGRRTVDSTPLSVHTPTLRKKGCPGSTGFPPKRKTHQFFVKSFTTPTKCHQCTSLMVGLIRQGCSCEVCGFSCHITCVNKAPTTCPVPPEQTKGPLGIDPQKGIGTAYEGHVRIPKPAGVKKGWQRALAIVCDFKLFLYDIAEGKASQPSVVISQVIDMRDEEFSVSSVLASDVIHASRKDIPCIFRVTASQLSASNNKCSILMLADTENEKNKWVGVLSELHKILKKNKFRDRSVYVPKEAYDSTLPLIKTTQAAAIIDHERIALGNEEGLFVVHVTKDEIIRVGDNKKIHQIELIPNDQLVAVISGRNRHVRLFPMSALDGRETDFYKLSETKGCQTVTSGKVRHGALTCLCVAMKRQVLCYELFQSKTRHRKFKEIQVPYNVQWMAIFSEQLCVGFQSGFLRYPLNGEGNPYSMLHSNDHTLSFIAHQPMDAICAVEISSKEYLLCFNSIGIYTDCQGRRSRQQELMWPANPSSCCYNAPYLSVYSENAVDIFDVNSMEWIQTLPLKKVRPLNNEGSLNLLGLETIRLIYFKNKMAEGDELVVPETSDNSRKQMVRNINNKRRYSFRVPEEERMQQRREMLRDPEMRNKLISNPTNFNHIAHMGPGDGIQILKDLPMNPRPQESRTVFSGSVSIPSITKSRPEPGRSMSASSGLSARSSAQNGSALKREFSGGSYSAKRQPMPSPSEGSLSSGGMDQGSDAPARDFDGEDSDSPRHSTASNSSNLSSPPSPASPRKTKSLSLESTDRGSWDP
Serine/threonine-protein kinase 10, sequence (O94804 whole entry): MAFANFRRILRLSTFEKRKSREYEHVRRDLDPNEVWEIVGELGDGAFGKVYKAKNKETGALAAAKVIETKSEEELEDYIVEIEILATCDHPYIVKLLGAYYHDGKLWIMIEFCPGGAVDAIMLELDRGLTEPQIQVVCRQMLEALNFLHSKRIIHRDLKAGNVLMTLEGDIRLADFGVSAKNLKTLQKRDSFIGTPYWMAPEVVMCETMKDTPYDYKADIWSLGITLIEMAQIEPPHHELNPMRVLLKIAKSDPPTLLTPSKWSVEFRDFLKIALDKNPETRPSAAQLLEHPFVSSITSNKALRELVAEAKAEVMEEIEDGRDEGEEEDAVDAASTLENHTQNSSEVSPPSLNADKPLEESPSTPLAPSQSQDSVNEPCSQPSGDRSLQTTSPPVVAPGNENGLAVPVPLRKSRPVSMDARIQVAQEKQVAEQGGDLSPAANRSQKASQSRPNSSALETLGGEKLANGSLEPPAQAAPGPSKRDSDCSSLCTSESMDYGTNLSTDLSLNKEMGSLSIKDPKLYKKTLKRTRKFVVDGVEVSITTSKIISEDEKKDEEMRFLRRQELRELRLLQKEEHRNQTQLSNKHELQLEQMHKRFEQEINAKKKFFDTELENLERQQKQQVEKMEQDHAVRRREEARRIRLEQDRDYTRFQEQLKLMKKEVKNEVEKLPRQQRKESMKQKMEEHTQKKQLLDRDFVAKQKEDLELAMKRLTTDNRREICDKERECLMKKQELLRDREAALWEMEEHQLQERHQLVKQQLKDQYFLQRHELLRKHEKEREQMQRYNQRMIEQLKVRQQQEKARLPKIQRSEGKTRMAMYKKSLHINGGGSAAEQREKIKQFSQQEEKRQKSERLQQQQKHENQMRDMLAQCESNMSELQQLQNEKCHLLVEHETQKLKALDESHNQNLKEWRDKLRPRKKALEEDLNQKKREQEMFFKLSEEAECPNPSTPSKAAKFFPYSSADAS
Serine/threonine-protein kinase PAK 2, sequence (Q13177 whole entry): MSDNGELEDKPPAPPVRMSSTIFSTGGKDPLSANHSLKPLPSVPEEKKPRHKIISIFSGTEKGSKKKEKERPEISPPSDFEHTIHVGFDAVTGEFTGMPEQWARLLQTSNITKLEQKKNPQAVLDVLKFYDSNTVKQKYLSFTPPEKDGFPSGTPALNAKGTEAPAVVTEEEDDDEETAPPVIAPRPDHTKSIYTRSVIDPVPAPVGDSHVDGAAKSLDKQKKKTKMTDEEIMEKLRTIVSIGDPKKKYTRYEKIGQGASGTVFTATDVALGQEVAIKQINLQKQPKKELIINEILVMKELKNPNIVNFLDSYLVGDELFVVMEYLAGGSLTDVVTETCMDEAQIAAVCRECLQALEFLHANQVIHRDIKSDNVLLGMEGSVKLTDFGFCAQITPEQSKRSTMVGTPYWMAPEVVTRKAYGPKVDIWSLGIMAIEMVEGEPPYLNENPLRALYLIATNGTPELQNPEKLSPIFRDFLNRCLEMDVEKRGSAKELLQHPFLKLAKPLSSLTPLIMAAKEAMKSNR
DnaJ homolog subfamily A member 1, sequence (P31689 whole entry): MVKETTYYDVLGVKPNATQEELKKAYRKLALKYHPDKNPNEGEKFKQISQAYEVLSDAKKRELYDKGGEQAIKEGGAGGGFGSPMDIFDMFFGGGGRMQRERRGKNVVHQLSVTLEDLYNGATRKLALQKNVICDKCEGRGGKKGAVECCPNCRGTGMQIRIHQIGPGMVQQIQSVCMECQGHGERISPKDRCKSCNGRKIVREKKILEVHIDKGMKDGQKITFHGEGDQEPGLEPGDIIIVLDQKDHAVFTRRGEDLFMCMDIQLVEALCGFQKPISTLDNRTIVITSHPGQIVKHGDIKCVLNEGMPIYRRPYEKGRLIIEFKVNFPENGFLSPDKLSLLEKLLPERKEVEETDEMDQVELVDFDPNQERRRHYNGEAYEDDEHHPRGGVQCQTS

For the compound `Cc1cc(Nc2nc(N[C@@H](C)c3ncc(F)cn3)ncc2Cl)n[nH]1` [AZD-1480], the Kd in [1], in test [2], in test [3], in [4], in test [5] and in test [6] was > 30 µM (inactive) in each case. For the same compound, the Kd is 0.728 µM (active) in test [7], > 30 µM (inactive) in test [8], > 30 µM (inactive) in test [9] and > 30 µM (inactive) in test [10].

As to `COc1cccc2cc(-c3nc([C@H]4CC[C@H](C(=O)O)CC4)n4ncnc(N)c34)[nH]c12` [OSI-027], the Kd in test [1], in test [2], in test [3], in [4], in test [5] and in [6] was > 30 µM (inactive) in each case. Moreover, the Kd in [7] was > 30 µM (inactive); in test [8] it was 0.78 µM (active); in [9], > 30 µM (inactive); in [10] it was > 30 µM (inactive).

On to `CN1CCN(c2nc(C3=C(c4c[nH]c5ccccc45)C(=O)NC3=O)c3ccccc3n2)CC1` [SOTRASTAURIN], for which the Kd in test [1] was > 30 µM (inactive); in test [2] it was > 30 µM (inactive); in [3], > 30 µM (inactive); in test [4], > 30 µM (inactive); in test [5], 2.95 µM; in [6], > 30 µM (inactive). Also, the Kd in test [7], in test [8], in test [9] and in test [10] was > 30 µM (inactive) each time.

In the case of `CCN1CCN(Cc2ccc(Nc3ncc(F)c(-c4cc(F)c5nc(C)n(C(C)C)c5c4)n3)nc2)CC1` [ABEMACICLIB], the Kd was 0.019 µM (active) in test [1]; > 30 µM (inactive) in test [2]; > 30 µM (inactive) in test [3]; > 30 µM (inactive) in test [4]; > 30 µM (inactive) in test [5]; > 30 µM (inactive) in [6]. Also, the Kd in test [7] is 2.47 µM (active); in test [8], > 30 µM (inactive); in [9], > 30 µM (inactive); in [10] it was > 30 µM (inactive).

As to `COc1ccc(-c2ccc3ncc4c(c3c2)n(-c2ccc(N3CCNCC3)c(C(F)(F)F)c2)c(=O)n4C)cn1` [BGT-226 FREE BASE], the Kd in test [1], in test [2], in [3], in test [4], in test [5] and in [6] was > 30 µM (inactive) in each case. Moreover, the Kd in test [7], in [8], in test [9] and in test [10] was > 30 µM (inactive) throughout.

In the case of `Cc1cc(C(=O)Nc2cc(Oc3ccc4nc(NC(=O)C5CC5)cn4n3)ccc2C)n(C)n1` [TAK-593], the Kd in test [1], in [2], in test [3], in test [4], in [5] and in test [6] was > 30 µM (inactive) throughout. Besides, the Kd in test [7], in [8], in test [9] and in test [10] was > 30 µM (inactive) throughout.

Regarding `Cn1cc(-c2[nH]c3cc(NC(=O)[C@H](N)C4CCCCC4)cc4c3c2C=NNC4=O)cn1`, the Kd in test [1] was > 30 µM (inactive); in test [2], > 30 µM (inactive); in [3] it was > 30 µM (inactive); in [4] it was > 30 µM (inactive); in [5] it was 0.119 µM (active); in test [6], > 30 µM (inactive). Also, the Kd in test [7] was > 30 µM (inactive); in test [8] it was > 30 µM (inactive); in test [9] it was 4.86 µM (active); in [10] it was > 30 µM (inactive).

On to `C[C@@H]1COC(Nc2ccc3ncnc(Nc4ccc(OCc5nccs5)c(Cl)c4)c3c2)=N1` [VARLITINIB], for which the Kd in test [1], in [2], in test [3], in test [4], in test [5] and in [6] was > 30 µM (inactive) throughout. The Kd in test [7], in test [8], in [9] and in test [10] was > 30 µM (inactive) in each case.

As for `CCc1cc2c(cc1N1CCC(N3CCOCC3)CC1)C(C)(C)c1[nH]c3cc(C#N)ccc3c1C2=O` [ALECTINIB], the Kd in test [1], in [2], in test [3], in test [4], in test [5] and in test [6] was > 30 µM (inactive) throughout. The Kd in test [7], in test [8], in [9] and in [10] was > 30 µM (inactive) in each case.

As for `C#Cc1cccc(Nc2ncnc3cc4c(cc23)OCCOCCOCCO4)c1` [ICOTINIB], the Kd in test [1], in [2], in test [3], in test [4], in test [5] and in test [6] was > 30 µM (inactive) in each case. In addition, the Kd was 0.227 µM (active) in test [7], > 30 µM (inactive) in [8], > 30 µM (inactive) in [9] and > 30 µM (inactive) in test [10].
